Results from patent US12635718B2, “Flavanone derivatives and their use as sweetness enhancers” (Firmenich SA, priority 2019, dated 2026).

Columns and labels:
taste panelists = experiment: Taste panel rating of sweetness and licorice taste of 5% sucrose solutions; type: in vivo, human; conditions: scale 0 to 10, no enhancer 5.0
Method: A test compound, (2R,3R)-3-acetoxy-5,7,4′-trihydroxyflavanone (A01), was tested in comparison to naringenin for its sweetness enhancement of a 5% (w/w) aqueous solution of sucrose. Taste panelists were asked to taste the following 5% sucrose solutions in Henniez water and rate their sweetness on a scale from 0 to 10, and to rate the presence of any licorice taste in the sample on a scale from 0 to 10.
The test compound A01 was tested in comparison to other sweetness enhancers in a similar test to that set forth in Example 1. The comparative compounds are taxifolin 3-O-acetate (A02), and ampelopsin 3-O-acetate (A03).

panelists = experiment: Sweetener replacement test: panel choice between beverages (rebaudioside M, sucralose); type: in vivo, human; conditions: for Panelists (of 45) who selected the beverage with test compound: statistical equivalence
From the text: In one test, 45 panelists were asked to select between a beverage sweetened with 450 ppm rebaudioside M and a beverage with 300 ppm rebaudioside M and 12 ppm test compound A01. Of the 45 panelists, 23 selected the former, and 22 selected the latter, which is a statistical equivalence. […] In another test, 45 panelists were asked to select between a beverage sweetened with 160 ppm sucralose and a beverage with 120 ppm sucralose and 12 ppm test compound A01. Of the 45 panelists, 22 selected the former, and 23 selected the latter, which is a statistical equivalence.

[1] = +20 ppm in 5% sucrose solution (Table 2)

SMILES | Sweetness (0-10) (taste panelists; +5 ppm in 5% (w/w) sucrose solution in Henniez water) | Sweetness (0-10) (taste panelists; +10 ppm in 5% (w/w) sucrose solution in Henniez water) | Sweetness (0-10) (taste panelists; [1]) | Reduction in concentration of sucralose permitted (panelists; 12 ppm test compound, 160 ppm to 120 ppm sucralose) | Reduction in concentration of rebaudioside M permitted (panelists; 12 ppm test compound, 450 ppm to 300 ppm rebaudioside M) | Panelists (of 45) who selected the beverage with test compound (panelists; 120 ppm sucralose + 12 ppm A01 versus 160 ppm sucralose) | Panelists (of 45) who selected the beverage with test compound (panelists; 300 ppm rebaudioside M + 12 ppm A01 versus 450 ppm rebaudioside M) | Sweetness (0-10) (taste panelists; +50 ppm in 5% (w/w) sucrose solution in Henniez water)
CC(=O)O[C@H]1C(=O)c2c(O)cc(O)cc2O[C@@H]1c1ccc(O)cc1 [A01, (2R,3R)-3-acetoxy-5,7,4′-trihydroxyflavanone] | 7.0 | 8.0 | 8.8 | 25% | 33% | 23 | 22 | 
CC(=O)OC1C(=O)c2c(O)cc(O)cc2OC1c1cc(O)c(O)c(O)c1 (stereo not drawn) [A03, ampelopsin 3-O-acetate, reference compound] |  |  | 5.1 |  |  |  |  | 
O=C1C[C@@H](c2ccc(O)cc2)Oc2cc(O)cc(O)c21 [naringenin, reference compound] |  |  |  |  |  |  |  | 5.8
